Test results reported in article PMC9532951, “Identification and characterization of a novel SNAT2 (SLC38A2) inhibitor reveals synergy with glucose transport inhibition in cancer cells” (Frontiers in Pharmacology, 2022).
Where “and” joins values, the source holds several entries; their conditions need not be identical. Equal values may be shown once.

Experiments:
SNAT1/2 = experiment: [14C]glutamine uptake in HCC1806 cells; type: cell-based, human
Description: (§1) Functional characterisation of plasma membrane transporters in human cancer cells was determined at 37°C using an array of radiolabelled amino acid substrates. Modified Hanks HEPES-buffered salts solution (mHBSS; 137 mM NaCl; 5.4 mM KCl; 2.7 mM K2HPO4; 1 mM CaCl2; 0.5 mM MgCl2; 0.44 mM KH2PO4; 0.4 mM MgSO4; 5 mM D-glucose; 5 mM HEPES; pH 7.4) was used to wash and incubate cells where sodium dependent transport was measured, while N-methyl-D-glucamine (NMDG) and potassium salts substituted sodium in NMDG mHBSS to measure sodium independent uptake. For the assay, cells were seeded in 35 mm dishes and, once confluent, were washed thrice with warm mHBSS solution and incubated with mHBSS containing an 100 µM amino acid at a final specific activity of ≥2000 cpm/nmol (U-[^14C]amino acids were from PerkinElmer). After 6 min, cells were washed thrice with ice-cold mHBSS, lysed with 500 µl of 0.1 M HCl, detached with a cell scraper and triturated. A 400 µl aliquot was used for scintillation counting, while the remainder was saved for protein mass quantification by Bradford assay. Transport rates were normalised to the protein content of the culture dish.

SNAT1 = target: T1, SNAT1 (Homo sapiens, UniProt Q9H2H9); experiment: Alanine uptake in HCC1806 D126 (ASCT2ko, SNAT2ko) cells; type: cell-based; conditions: for Alanine uptake (nmol / mg protein x 6 min): Figure 4B, replicates 1-3; for inhibition of alanine uptake: HCC1806 D126, Figure 4B, betaine and MeAIB 10 mM
T1 construct: SNAT1 remained active as indicated by the Na^+-dependence of alanine uptake; endogenous in cells; host or cells: HCC1806 clone D126 (ASCT2ko, SNAT2ko), amino acid depleted for 24 h
T1 sequence (Q9H2H9 1-487): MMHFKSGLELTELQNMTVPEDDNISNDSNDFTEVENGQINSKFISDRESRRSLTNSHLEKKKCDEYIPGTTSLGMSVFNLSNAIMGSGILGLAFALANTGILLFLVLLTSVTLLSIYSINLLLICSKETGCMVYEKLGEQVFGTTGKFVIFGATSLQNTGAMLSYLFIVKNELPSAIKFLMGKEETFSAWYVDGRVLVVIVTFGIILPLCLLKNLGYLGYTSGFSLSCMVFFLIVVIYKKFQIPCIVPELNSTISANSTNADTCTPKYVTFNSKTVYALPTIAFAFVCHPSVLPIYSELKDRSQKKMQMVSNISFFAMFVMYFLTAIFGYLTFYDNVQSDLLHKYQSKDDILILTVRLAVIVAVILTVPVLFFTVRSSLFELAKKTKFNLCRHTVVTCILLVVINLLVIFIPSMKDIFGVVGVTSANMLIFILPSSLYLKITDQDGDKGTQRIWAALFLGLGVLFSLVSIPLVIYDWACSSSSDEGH
Description: (§2) To delete the SNAT2 (SLC38A2) gene in modified HCC1806 cells (clone C10 nullizygous for ASCT2 ([Broer et al., 2019])), the GeneArt CRISPR Nuclease Vector with OFP Reporter Kit (Invitrogen; A21174) was employed and complementary 19–20 bp long single-stranded oligonucleotides with overhangs were designed to produce a guide RNA (gRNA) for the Cas9 nuclease that would target exon 7 of the SNAT2 gene. Colonies were analysed by sequencing using the U6 primer included in the GeneArt CRISPR Nuclease Vector with OFP Reporter kit. Plasmids that contained the correct CRISPR nuclease construct were then used to transfect HCC1806 cells with Lipofectamine 2000 (Invitrogen). Prior to transfection, medium was replaced with 2 ml of fresh DMEM/F-12 (supplemented with 10% heat-inactivated FBS and 2 mM glutamine). Plasmid DNA (4 µg) and 10 µL of Lipofectamine 2000 were incubated separately for 5 min at room temperature in 500 µl of Opti-MEM (Invitrogen) before being combined and incubated for a further 30 min at room temperature. The DNA-Lipofectamine complex was then added to the cells in a dropwise manner and allowed to be absorbed over 6 h at 37°C, after which the medium was renewed with fresh DMEM/F-12. Cells were checked for red fluorescence using an EVOS FL cell imaging system (Thermo Fisher Scientific) 48–72 h post transfection. Subsequently, cells were detached using 0.25% Trypsin EDTA. After harvesting and washing thrice with PBS (pH 7.4), cells were resuspended in PBS (pH 7.4) supplemented with 5 mM glucose and 1% dialysed and heat inactivated FBS and passed through a 100 μm cell strainer. The cell filtrate was then pelleted once more and resuspended in the same buffer. Cells were sorted using an ARIA II FACS machine and individually dispensed into the wells of a 96-well plate. Nullizygous clones were identified using a series of assays including the FLIPR membrane potential assay, western blotting and sequencing.
as §1

SNAT2 = experiment: Radiolabelled proline uptake in amino acid depleted SKOV3 cells; type: cell-based, human
Description: as §1
IC50 were calculated using equation y=ymax(1−x/x+IC50)

SNAT1 and SNAT2 = experiment: FMP assay in HCC1806 clones C10 (ASCT2ko) and D126 (ASCT2ko, SNAT2ko); type: cell-based, human
Description: as §2
The FLIPR Membrane Potential Blue Explorer Kit (Molecular Devices) was used to characterise inhibitors and to optimise a high-throughput compound screen. Cells were seeded at approximately 60,000 cells/well on a 96-well plate and allowed to attach and grow overnight in a cell incubator. The next day, the cells were washed once with mHBSS and incubated in a starvation medium (composed of mHBSS with 1% dialysed heat-inactivated FBS, 23 mM NaHCO3, 10 U/ml penicillin and 10 μg/ml streptomycin) for 24 h. Cells were then washed once with mHBSS and incubated with 50 µl of the mHBSS-resuspended FMP assay dye and 50 µl of mHBSS (with or without inhibitors) and incubated at room temperature for 30 min. The plate was then placed in an EnSpire Multimode plate reader (PerkinElmer) and four sequential measurements of fluorescence were recorded as a baseline reference. Immediately after the baseline measurements were taken, 25 µl of 5 mM glutamine dissolved in mHBSS was injected into each well and the plate was shaken orbitally for 5 s before a series of consecutive fluorescence measurements were taken. The excitation wavelength was set to 530 nm and the emission was detected at 565 nm. The Δ fluorescent signal reported in the figures was taken 30 s after substrate addition. After the assay was complete, the liquid content of the plate was carefully removed, and the cell monolayer inspected to ensure it remained intact throughout the course of the assay.

C[N+](C)(C)CC(=O)O [Betaine, betaine]
Glutamine uptake (SNAT1/2; AA+ (growth medium), 100 µM glutamine, replicates 1-3): 37.8707 nmol / mg protein x 6 min and 45.7014 nmol / mg protein x 6 min and 38.6268 nmol / mg protein x 6 min | Glutamine uptake (SNAT1/2; AA- (starvation medium 24 h), 100 µM glutamine, replicates 1-3): 13.5306 nmol / mg protein x 6 min and 16.7838 nmol / mg protein x 6 min and 15.0446 nmol / mg protein x 6 min | reduction of glutamine uptake (SNAT1/2; amino acid depleted HCC1806 cells (24 h), 100 µM glutamine): 46% | Alanine uptake (nmol / mg protein x 6 min) (SNAT1; 10mM): 27.8319 nmol / mg protein x 6 min and 27.8658 nmol / mg protein x 6 min and 25.4928 nmol / mg protein x 6 min | inhibition of alanine uptake (SNAT1): not inhibited | inhibition of proline uptake (SNAT2; 10 mM, 100 µM proline, Figure 4A (24 h starvation)): 30% | inhibition of proline uptake (SNAT2; 10 mM, Figure 4D (15 h starvation)): 60% | Proline uptake (nmol / mg protein x 6 min) (SNAT2; Figure 4A, 10mM, replicates 1-3): 14.3516 nmol / mg protein x 6 min and 14.2805 nmol / mg protein x 6 min and 13.5695 nmol / mg protein x 6 min | Proline uptake (nmol / mg protein x 6 min) (SNAT2; Figure 5B, reference inhibitors, replicates): 7.636 nmol / mg protein x 6 min and 7.165 nmol / mg protein x 6 min and 7.435 nmol / mg protein x 6 min and 7.421 nmol / mg protein x 6 min

N[C@@H](CCC(=O)NO)C(=O)O [GHX, L-glutamic acid γ-monohydroxamate]
block of glutamine (1 mM) FMP signal (SNAT1 and SNAT2; C10 cells): fully blocked | FMP fluorescence (SNAT1 and SNAT2; C10 cells, time 0, replicates 1-10): 22566 and 24924 and 25754 and 31415 and 31062 and 25958 and 24037 and 24199 and 31861 and 22458 | FMP fluorescence (SNAT1 and SNAT2; C10 cells, time 30, replicates 1-10): 22979 and 25257 and 24877 and 31065 and 30653 and 25037 and 22964 and 23247 and 31019 and 21524 | FMP fluorescence (SNAT1 and SNAT2; C10 cells, time 40, replicates 1-10): 22836 and 25183 and 25086 and 31077 and 30677 and 25349 and 23314 and 23279 and 31141 and 21715 | FMP fluorescence (SNAT1 and SNAT2; C10 cells, time 50, replicates 1-10): 22729 and 25095 and 24771 and 30889 and 30642 and 25022 and 23105 and 23276 and 31320 and 21555 | FMP fluorescence (SNAT1 and SNAT2; C10 cells, time 60, replicates 1-10): 22771 and 25085 and 24871 and 30919 and 30705 and 25319 and 23018 and 23144 and 31224 and 21790 | FMP fluorescence (SNAT1 and SNAT2; C10 cells, time 70, replicates 1-10): 22546 and 24933 and 24936 and 30890 and 30628 and 25268 and 22856 and 23122 and 31403 and 21489 | FMP fluorescence (SNAT1 and SNAT2; C10 cells, time 80, replicates 1-10): 22447 and 25159 and 24725 and 30733 and 30614 and 25267 and 22687 and 23011 and 31397 and 21490 | FMP fluorescence (SNAT1 and SNAT2; C10 cells, time 90, replicates 1-10): 22259 and 25131 and 24741 and 30924 and 30357 and 25175 and 22779 and 23104 and 30871 and 21284 | FMP fluorescence (SNAT1 and SNAT2; C10 cells, time -10, replicates 1-10): 23300 and 25374 and 26077 and 32072 and 31514 and 26200 and 24526 and 24442 and 32334 and 22554 | FMP fluorescence (SNAT1 and SNAT2; C10 cells, time -20, replicates 1-10): 23913 and 26637 and 26782 and 32769 and 33018 and 26873 and 25394 and 25312 and 33318 and 23095

Cc1ccc(S(=O)(=O)N(C)c2ccsc2C(=O)NCc2ccccc2C(F)(F)F)cc1 [Compound 57_E, 3-(N-methyl (4-methylphenyl)sulfonamido)-N-(2-trifluoromethylbenzyl)thiophene-2-carboxamide]
inhibition of 100 µM glutamine uptake (SNAT1/2; 50 µM inhibitor, HCC1806 after 24 h amino acid depletion): inhibited a significant fraction of the MeAIB-sensitive component of glutamine uptake | Glutamine uptake (nmol / mg protein x 6 min) (SNAT1/2; Figure 3D, replicates 1-3): 46.6677 nmol / mg protein x 6 min and 48.4796 nmol / mg protein x 6 min and 48.0528 nmol / mg protein x 6 min | discrimination between SNAT2 and SNAT1 (SNAT1): discriminated against the close transporter homologue SNAT1 | Alanine uptake (nmol / mg protein x 6 min) (SNAT1; screening compounds): 28.3148 nmol / mg protein x 6 min and 26.5203 nmol / mg protein x 6 min and 27.3289 nmol / mg protein x 6 min | inhibition of alanine uptake (SNAT1): did not inhibit alanine uptake | inhibition of proline uptake (SNAT2; 30 µM, Figure 4A): inhibition equivalent to betaine | Proline uptake (nmol / mg protein x 6 min) (SNAT2; Figure 4A, screening compounds, replicates 1-3): 12.1271 nmol / mg protein x 6 min and 12.3527 nmol / mg protein x 6 min and 11.9613 nmol / mg protein x 6 min | Proline uptake (nmol / mg protein x 6 min) (SNAT2; Figure 5B, 0.03 uM): 13.4934 nmol / mg protein x 6 min and 12.6179 nmol / mg protein x 6 min and 11.806 nmol / mg protein x 6 min and 12.3756 nmol / mg protein x 6 min | Proline uptake (nmol / mg protein x 6 min) (SNAT2; Figure 5B, 0.1 uM): 11.4589 nmol / mg protein x 6 min and 11.5974 nmol / mg protein x 6 min and 12.2114 nmol / mg protein x 6 min and 11.4952 nmol / mg protein x 6 min | Proline uptake (nmol / mg protein x 6 min) (SNAT2; Figure 5B, 0.3 uM): 9.658 nmol / mg protein x 6 min and 10.0504 nmol / mg protein x 6 min and 12.5202 nmol / mg protein x 6 min and 8.873 nmol / mg protein x 6 min | Proline uptake (nmol / mg protein x 6 min) (SNAT2; Figure 5B, 1 uM): 8.923 nmol / mg protein x 6 min and 10.4357 nmol / mg protein x 6 min and 8.533 nmol / mg protein x 6 min | Proline uptake (nmol / mg protein x 6 min) (SNAT2; Figure 5B, 3 uM): 6.737 nmol / mg protein x 6 min and 7.879 nmol / mg protein x 6 min and 6.95 nmol / mg protein x 6 min and 7.052 nmol / mg protein x 6 min | Proline uptake (nmol / mg protein x 6 min) (SNAT2; Figure 5B, 10 uM): 6.707 nmol / mg protein x 6 min and 7.214 nmol / mg protein x 6 min and 6.31 nmol / mg protein x 6 min and 7.23 nmol / mg protein x 6 min

NC(=O)CC[C@H](N)C(=O)O [Glutamine, glutamine]
FMP signal in D126 cells (ASCT2ko, SNAT2ko) compared to C10 (SNAT1 and SNAT2; MeAIB 10 mM, glutamine 1 mM): 42%
